Results taken from patent US11866460B2 (priority 2015, dated 2024).
In brackets after ≈: the same amount, converted by molar mass. Several values for one entry are separate records, joined by “and”; a condition that tells them apart may be missing. Identical values can stand only once. Like-named read-outs stand apart in the source and are kept apart here. Where a SMILES comes first, the peptide text is derived from it. Where no end group is shown, it is not given here.

Experiments:
LACV H44-71017 = assay: organism not typed; type: cell-based, LaCrosse encephalitis virus; conditions: Vero
DENV-2 New Guinea C [1] = tested on: DENV-2 New Guinea C
DENV-4 H241 [2] = tested on: DENV-4 H241
YFV 17D [3] = tested on: YFV 17D
Vero cells = conditions: African green monkey
in vitro [4] = conditions: African green monkey, CC50
DENV-1 PRS41393 [5] = assay: microbe, parasite or virus in culture; conditions: Dengue virus, DENV1, Vero
DENV-2 New Guinea C [6] = assay: microbe, parasite or virus in culture; conditions: Dengue virus, DENV2, Vero
DENV-3 H87 = assay: microbe, parasite or virus in culture; conditions: Dengue virus, DENV3, Vero, 0 h
DENV-4 H241 [7] = assay: microbe, parasite or virus in culture; conditions: Dengue virus, DENV4, Vero
JUNV Candid #1 [8] = assay: microbe, parasite or virus in culture; conditions: Mammarenavirus juninense, Vero
RVFV MP12 = assay: microbe, parasite or virus in culture; conditions: Rift Valley fever virus, Vero, 0 h
YFV 17D [9] = assay: microbe, parasite or virus in culture; conditions: Yellow fever virus, Vero
[10] = tested on: influenza A/Hong Kong/1/1968 virus (H3N2); assay: microbe, parasite or virus in culture; conditions: H3N2, MDCK
HSV-1 = assay: microbe, parasite or virus in culture; conditions: Human alphaherpesvirus 1, Vero
Haemophilus influenzae = assay: microbe, parasite or virus in culture; type: cell-based
Clostridium difficile = assay: microbe, parasite or virus in culture; type: cell-based; conditions: Clostridioides difficile, 48 h
Propionibacterium acnes = assay: microbe, parasite or virus in culture; type: cell-based; conditions: Cutibacterium acnes, 48 h
ZIKV FSS 13025 [11] = conditions: read-out: IC50 (PRNT50), plaque reduction; Vero cells, day 4
ZIKV FSS 13025 [12] = conditions: read-out: IC50, yield reduction; Vero cells, day 3
HIV-1RF = type: cell-based
CHIKV 181/25 = conditions: 0 h
DENV-1 PRS41393 [13] = conditions: -1 PRS41393, 0 h
JUNV Candid #1 [14] = conditions: 0 h
VACV NYCBH = conditions: 0 h
VEEV TC-83 = conditions: 0 h
HIV-1US/92/727 = conditions: human PBMCs
[15] = tested on: panel of enveloped viruses (DENV, JEV, YFV, CHIKV and others); conditions: panel of enveloped viruses (, JEV, YFV, CHIKV and others)
[16] = tested on: Lactobacillus acidophilus
[17] = tested on: Staphylococcus aureus (MSSA)
[18] = tested on: Enterococcus faecalis (VSE)
[19] = tested on: Enterococcus faecalis (VRE)
[20] = tested on: Enterococcus faecium (VRE)
[21] = tested on: Streptococcus pneumoniae (PSSP)
[22] = tested on: Streptococcus pneumoniae (PRSP)
[23] = tested on: Bacillus anthracis Sterne
[24] = tested on: aerobic Gram-positive bacterial isolates (S. aureus, enterococci, streptococci, and B. anthracis)
[25] = tested on: Vero cells, erythrocyte, epithelial and endometrial cell lines
in vitro [26] = conditions: dog
in vitro [27] = conditions: human, TC50
in vitro [28] = conditions: Lactobacillus acidophilus
in vitro [29] = conditions: Lactobacillus jensenii
in vitro [30] = conditions: Lactobacillus crispatus
[31] = 0.01 μg/mL during exposure, Day 3
[32] = 0.01 μg/mL during exposure, Day 6
[33] = 0.1 μg/mL during exposure, Day 3
[34] = 0.1 μg/mL during exposure, Day 6
[35] = 10 μg/mL during exposure, Day 3
[36] = 10 μg/mL during exposure, Day 6
[37] = 100 μg/mL during exposure, Day 3
[38] = 100 μg/mL during exposure, Day 6
[39] = 1000 μg/mL during exposure, Day 3
[40] = 1000 μg/mL during exposure, Day 6

Molecule: NC(=O)c1ncn([C@@H]2O[C@H](CO)[C@@H](O)[C@H]2O)n1 [Ribavirin]
- EC50 (LACV H44-71017): 161 µM
- EC50 (LACV H44-71017; 0 h): 143 µM
- EC50 (DENV-2 New Guinea C [1]): 203 µM and 185 µM
- EC50 (DENV-4 H241 [2]): 209 µM and 284 µM
- EC50 (YFV 17D [3]): 212 µM and 170 µM
- CC50 (Vero cells): 577 µM
- CC50 (in vitro [4]): > 750 µM
- EC50 (DENV-1 PRS41393 [5]): 144 µM
- EC50 (DENV-1 PRS41393 [5]; 0 h): 206 µM
- EC50 (DENV-2 New Guinea C [6]): 267 µM
- EC50 (DENV-2 New Guinea C [6]; 0 h): 360 µM
- EC50 (DENV-3 H87): 176 µM
- EC50 (DENV-4 H241 [7]): 253 µM
- EC50 (DENV-4 H241 [7]; 0 h): 395 µM
- EC50 (JUNV Candid #1 [8]): 73.2 µM
- EC50 (JUNV Candid #1 [8]; 0 h): 63.7 µM
- EC50 (RVFV MP12): 140 µM
- EC50 (YFV 17D [9]): 203 µM
- EC50 (YFV 17D [9]; 0 h): 258 µM

Molecule: CC(=O)N[C@H]1[C@H]([C@H](O)[C@H](O)CO)OC(C(=O)O)=C[C@@H]1N=C(N)N [Zanamivir]
- EC50 [10]: 4.52 µM

Molecule: Nc1nc2c(ncn2COCCO)c(=O)[nH]1 [Acyclovir]
- EC50 (HSV-1): 2.82 µM

Molecule: CCC[C@@H]1C[C@@H](C(=O)N[C@@H]([C@H]2O[C@H](SC)[C@H](O)[C@@H](O)[C@H]2O)[C@H](C)Cl)N(C)C1 [Clindamycin]
- MIC (Haemophilus influenzae): 4 µg/mL (≈ 9.41 µM)
- MIC (Clostridium difficile): 1 µg/mL (≈ 2.35 µM)
- MIC (Propionibacterium acnes): ≤ 0.06 µg/mL

Molecule: CC(C)C[C@@H](NC(=O)[C@@H](CCCCN)NC(=O)[C@@H](CO)NC(=O)[C@@H](CCC(N)=O)NC(=O)[C@@H](CC(C)C)NC(=O)[C@@H](Cc1c[nH]c2ccccc12)NC(=O)[C@H](NC(=O)[C@@H](Cc1c[nH]c2ccccc12)NC(=O)[C@H](NC(=O)[C@@H](CC(=O)O)NC(=O)[C@@H](CCCNC(=N)N)NC(=O)[C@@H](CC(C)C)NC(=O)[C@@H](Cc1c[nH]c2ccccc12)NC(=O)[C@@H](CO)NC(=O)CNC(=O)[C@H](N)CO)C(C)C)[C@H](C)O)C(=O)O [TSG001 D-isomer] (HELM PEPTIDE1{[dS].G.[dS].[dW].[dL].[dR].[dD].[dV].[dW].[dT].[dW].[dL].[dQ].[dS].[dK].[dL]}$$$$V2.0; N-terminus and C-terminus assumed)
- IC50 (ZIKV FSS 13025 [11]): 0.49 µM
- IC50 (ZIKV FSS 13025 [12]): 0.646 µM
- CC50 (in vitro [4]): 11.7 µM

Molecule: Nonoxynol-9 [Nonoxynol 9]
- Log Reduction in Virus Titer (HIV-1RF; [31]): 0.3 log
- TCID50 Sample - Virus (HIV-1RF; [31]): 5
- Log Reduction in Virus Titer (HIV-1RF; [32]): 0.5 log
- TCID50 Sample - Virus (HIV-1RF; [32]): 6
- Log Reduction in Virus Titer (HIV-1RF; [33]): 0.3 log
- TCID50 Sample - Virus (HIV-1RF; [33]): 5
- Log Reduction in Virus Titer (HIV-1RF; [34]): 0.7 log
- TCID50 Sample - Virus (HIV-1RF; [34]): 5.8
- Log Reduction in Virus Titer (HIV-1RF; 1 μg/mL during exposure, Day 3): 0.3 log
- TCID50 Sample - Virus (HIV-1RF; 1 μg/mL during exposure, Day 3): 5
- Log Reduction in Virus Titer (HIV-1RF; 1 μg/mL during exposure, Day 6): 0 log
- TCID50 Sample - Virus (HIV-1RF; 1 μg/mL during exposure, Day 6): ≥6.6
- Log Reduction in Virus Titer (HIV-1RF; [35]): 0 log
- TCID50 Sample - Virus (HIV-1RF; [35]): 5.3
- Log Reduction in Virus Titer (HIV-1RF; [36]): 0 log
- TCID50 Sample - Virus (HIV-1RF; [36]): ≥6.6
- Log Reduction in Virus Titer (HIV-1RF; [37]): ≥3.3 log
- TCID50 Sample - Virus (HIV-1RF; [37]): ≤2.0
- Log Reduction in Virus Titer (HIV-1RF; [38]): 2.9 log
- TCID50 Sample - Virus (HIV-1RF; [38]): 3.6
- Log Reduction in Virus Titer (HIV-1RF; [39]): ≥2.8 log
- TCID50 Sample - Virus (HIV-1RF; [39]): ≤2.5
- Log Reduction in Virus Titer (HIV-1RF; [40]): ≥2.7 log
- TCID50 Sample - Virus (HIV-1RF; [40]): ≤3.8
- TC50 (ME180 cells): 74.0 µg/mL
- TC50 (Ca Ski cells): 61.3 µg/mL
- TC50 (HEC1A cells): 62.9 µg/mL
- TC50 (Caco-2 cells): 55.1 µg/mL

Molecule: SGSWLRDVWTWLQSKL [TSG001]
- EC50 (CHIKV 181/25): 2.24 µM
- EC50 (DENV-1 PRS41393 [13]): 3.42 µM
- EC50 (JUNV Candid #1 [14]): > 75 µM
- EC50 (VACV NYCBH): > 12.5 µM
- EC50 (VEEV TC-83): > 12.5 µM
- EC50 (Ebola virus (EBOV)): 0.934 µM
- EC50 (Marburg virus (MARV)): 0.637 µM
- TI (TC50/EC50) (HIV-1US/92/727): 8.93
- EC50 [15]: < 3 µM
- CC50 (Vero cells): 153 µM
- CC50 (ME180 cells; human): 37 µM
- MHC (human erythrocyte cells): 50 µM
- TC50 [16]: non-toxic
- TC50 (Lactobacillus jensenii): non-toxic
- TC50 (Lactobacillus crispatus): non-toxic
- MIC [17]: 2 µM
- MIC [18]: 2 µM
- MIC [19]: 4 µM
- MIC [20]: 2 µM
- MIC [21]: 8 µM
- MIC [22]: 8 µM
- MIC (Streptococcus pyogenes): 4 µM
- MIC (Streptococcus agalactiae): 8 µM
- MIC (Streptococcus salivarius): 4 µM
- MIC [23]: 1 µM
- MICs, range over isolates [24]: 2 to 16 µg/mL
- cytotoxicity [25]: minimal cytotoxicity
- CC50 (in vitro [26]): > 200 µM
- CC50 (in vitro [27]): 37 µM
- CC50 (in vitro [28]): > 50 µM
- CC50 (in vitro [29]): > 50 µM
- CC50 (in vitro [30]): > 50 µM

Molecule: Cc1cn([C@H]2C[C@H](N=[N+]=[N-])[C@@H](CO)O2)c(=O)[nH]c1=O [AZT]
- TI (TC50/EC50) (HIV-1US/92/727): >342.5
- EC50 (HIV-1US/92/727; 7 days): 0.0029 µM and 0.00292 µM
- CC50 (human PBMCs): > 1 µM
